{"source": "patent US11026381B2", "about": "“Method for producing haploid, dihaploid and doubled haploid plants by isolated microspore culture” (Vilmorin & Cie, priority 2015, dated 2021)", "key": {"globular embryos": {"system": "globular embryos", "test": "Elongation of globular embryos (bilayer culture system)", "type": "cell-based, Cucumis sativus", "conditions": "in liquid embryo culture medium", "text": "In one embodiment, the LECM comprises one or more HDACi and/or one or more polyamines, preferably both HDACi and polyamine. The HDACi and/or the polyamine can be selected from the above lists, and can be present in any of the aforementioned quantities, in the LECM. In certain embodiments, the LECM further comprises plant growth regulators, in particular selected from auxins, cytokinins, gibberellins, abscisic acid, and mixtures thereof. In a preferred embodiment, the LECM comprises abscisic acid, in an amount effective to enable the development of the embryos. In particular, the LECM comprises from 0.5 to 5 ppm abscisic acid, still preferably from 1 to 2 ppm abscisic acid.\nGlobular embryos are visible after 20 to 40 days of culture in MEDM medium. To obtain elongated embryos, the inventors have used a bilayer culture system on a rotary shaker at 50-70 rpm in the dark for about 30 day, which has enabled the elongation of the embryos (FIG. 2E to 2G). The bilayer culture system is made of two layers, one lower solid medium made of MEEM with activated charcoal and solidified with 7 g/L agar (see Table 7) and one upper liquid medium, still made of MEDM supplemented with 1-2 ppm abscisic acid and containing the embryos to be elongated."}, "isolated microspores": {"system": "isolated microspores", "test": "Test of various compounds within the IMC media (all with SAHA 10 μM)", "type": "cell-based, Cucumis sativus", "conditions": "in association with SAHA", "method": "Isolated microspores are obtained according to the method described in Example 2, and cultured. […] All media comprise M404 basal medium and carbohydrates as in the MEIM composition described in Table 7, supplemented with 10 μM SAHA plus various other additional compounds. “Event” represents embryogenic callus or embryos.\nThe microspore cultures are evaluated for their production of multicellular structures and/or normal embryos."}, "[1]": {"system": "isolated microspores of Cucumis sativus", "test": "Isolated microspore culture (IMC) of cucumber with HDACi and/or polyamine: formation and classification of multicellular structures", "type": "cell-based", "conditions": "for Classification of the multicellular structures / Response (% of formation of multicellular structures): no polyamine", "method": "The solution of microspore is diluted to a concentration of about 30,000-150,000 cells/mL using a haemocytometer to count the microspore density. This is done in a Microspore Embryogenesis Induction Medium (MEIM), which components are described in Table 7. The solution is aliquoted by 4-6 mL into 60 mm×50 mm petri plates and sealed, for a heat shock of 24-72 hour at 30-33° C. in the dark.\nThe isolated microspores are then cultured in the dark at 22-28° C. for about four to five weeks until globular embryos can be seen by bare eyes.\nThe MEIM medium complemented with polyamine is referred to as a Microspore embryo development medium (MEDM) which components are described in Table 7.\nOne will note that the Response % is the percentage of formation of multicellular structures, not the analysis or classification of such structures as normal or abnormal. The last column (classification of the multicellular structures) reflects the observation of the multicellular structures according to criteria which defines whether they are normal or abnormal, i.e. uniformity of the cells, and compactness of the multicellular structures."}}, "data": [{"smiles": "CC1=CC(=O)CC(C)(C)[C@@]1(O)/C=C/C(C)=C\\C(=O)O", "note": "[Abscisic acid, abscisic acid]", "values": [{"measurement": "effect on elongation of the embryos", "setting": "globular embryos", "result": "positive effect"}]}, {"smiles": "NCCCCN", "note": "[Putrescine, putrescine]", "values": [{"measurement": "development of normal embryos from the isolated microspores", "setting": "isolated microspores", "result": "enable the development of normal embryos"}]}, {"smiles": "O=C(CCCCCCC(=O)Nc1ccccc1)NO", "note": "[SAHA, suberoylanilide hydroxamic acid]", "values": [{"measurement": "Classification of the multicellular structures", "setting": "[1]; cultivar HMX4453, SAHA 10 μM", "result": "Abnormal"}, {"measurement": "Response (% of formation of multicellular structures)", "setting": "[1]; cultivar HMX4453, SAHA 10 μM", "result": 9.6, "unit": "%"}, {"measurement": "Classification of the multicellular structures", "setting": "[1]; cultivar PI518848, SAHA 5 μM", "result": "Abnormal"}, {"measurement": "Response (% of formation of multicellular structures)", "setting": "[1]; cultivar PI518848, SAHA 5 μM", "result": 13.7, "unit": "%"}, {"measurement": "Classification of the multicellular structures", "setting": "[1]; cultivar PI518848, SAHA 10 μM", "result": "Abnormal"}, {"measurement": "Response (% of formation of multicellular structures)", "setting": "[1]; cultivar PI518848, SAHA 10 μM", "result": 17.3, "unit": "%"}, {"measurement": "multicellular microspore formations", "setting": "[1]; isolated microspore cultures with SAHA but without polyamine", "result": "more present but are abnormal"}]}, {"smiles": "CC(/C=C/C(=O)NO)=C\\[C@@H](C)C(=O)c1ccc(N(C)C)cc1", "note": "[TSA, trichostatin A]", "values": [{"measurement": "response compared with SAHA", "setting": "[1]; another HDACi tested in isolated microspore culture", "result": "lower response than for the SAHA"}, {"measurement": "Classification of the multicellular structures", "setting": "[1]; cultivar PI518848, TSA 0.5 μM", "result": "Abnormal"}, {"measurement": "Response (% of formation of multicellular structures)", "setting": "[1]; cultivar PI518848, TSA 0.5 μM", "result": 4.3, "unit": "%"}]}]}
